Experimental data taken from US6800772B2, “Carboxylic acids and derivatives thereof and pharmaceutical compositions containing them” (Yissum Research Development Company of the Hebrew …, priority 1997, dated 2004).
Each block holds one molecule with its values, some of them ahead of it.

Tests used:
Rats [1] = test: Experiment I: rats fed chow supplemented with compound for 6 days; plasma lipids, glucose, food intake; format: in vivo; settings: 0.1% (w/w) in diet
Protocol: Rats (n=5 for each treatment group) were fed ad libitum on Purina chow for 6 days, the diet being supplemented with 0.1% (w/w) γ,γ′-methyl substituted α,ω-dioic acids of formula (II) (Ex. 1, Ex. 3, Ex. 4) in the diet. The biological effect in vivo was evaluated by following food intake, plasma triglycerides, plasma cholesterol and plasma glucose.

Rats [2] = test: Experiment II: rats fed chow supplemented with compound for 5 days; plasma triglycerides, apo C-III, insulin; format: in vivo
Protocol: (§1) Rats (n=5 for each treatment group) were fed ad libitum on purina chow for 5 days, the diet being supplemented with either γ,γ′-methyl substituted α,ω hexadecanedioic acid (formula (II). Ex. 3) or β,β′-methyl substituted α,ω-hexadecanedioic acid (U.S. Pat. No. 4,634,795) at a dosage of 0.09% (w/w) in the diet. The biological effect in vivo was evaluated by following plasma triglycerides, plasma apolipoprotein(apo)C-III, plasma insulin and the steady state concentrations (Css) of the respective drugs in plasma. Fold efficacy of the γ,γ′-substituted compound (Ex. 3) relative to the β,β′-substituted compound was calculated by normalizing the observed effect by the respective Css attained.

Rats [3] = test: Experiment III: conditions as in Experiment II; plasma lipids, apo C-III, glucose, insulin; format: in vivo
Protocol: as §1
Conditions as in Experiment II using α,α′-methyl-substituted α,ω-tetradecanedioic acid.
Fold efficacy represents the respective effect induced by the α,α′-substituted compound (Ex. 5) relative to that of the β,β′-substituted compound.

[4] = observed effect normalized by respective Css, relative to β,β′-substituted compound
[5] = rats, 0.09% (w/w) in diet, 5 days
[6] = effect of α,α′-substituted compound relative to β,β′-substituted compound
[7] = rats, conditions as in Experiment II

- melting point: 88 to 89 °C
SMILES: CC(C)(CCCCCCC(C)(C)CCC(=O)O)CCC(=O)O [Ex. 1, 4,4,11,11-Tetramethyltetradecanedioic Acid]
- Food intake (Rats [1]): 18.6 ± 2.1 g/day
- Plasma cholesterol (Rats [1]): 64.1 ± 12.0 mg %
- Plasma glucose (Rats [1]): 127.8 ± 6.6 mg %
- Plasma triglycerides (Rats [1]): 24.8 ± 3.9 mg %

SMILES: CC(C)(CCCCCCCCC(C)(C)CCC(=O)O)CCC(=O)O [Ex. 3, 4,4,13,13-Tetramethylhexadecanedioic Acid]
- Food intake (Rats [1]): 19.3 ± 1.1 g/day
- Plasma cholesterol (Rats [1]): 62.4 ± 13.3 mg %
- Plasma glucose (Rats [1]): 138.8 ± 2.7 mg %
- Plasma triglycerides (Rats [1]): 28.8 ± 7.4 mg %
- Fold efficacy (γ,γ/β,β), plasma apo C-III (Rats [2]; [4]): 7.7
- Fold efficacy (γ,γ/β,β), plasma insulin (Rats [2]; [4]): 15.2
- Fold efficacy (γ,γ/β,β), plasma triglycerides (Rats [2]; [4]): 8.2
- Plasma apo C-III (Rats [2]; [5]): 12.0 ± 4.6 mg %
- Plasma insulin (Rats [2]; [5]): 16 ± 6.1 µU/mL
- Plasma triglycerides (Rats [2]; [5]): 19.9 ± 7.4 mg %

- melting point: 71 to 72 °C
SMILES: CC(C)(CCCCCCCCCCC(C)(C)CCC(=O)O)CCC(=O)O [Ex. 4, 4,4,15,15-Tetramethyloctadecanedioic acid]
- Food intake (Rats [1]): 19.1 ± 1.2 g/day
- Plasma cholesterol (Rats [1]): 56.8 ± 10.8 mg %
- Plasma glucose (Rats [1]): 139.0 ± 9.0 mg %
- Plasma triglycerides (Rats [1]): 29.3 ± 10.4 mg %

SMILES: CC(C)(CCCCCCCCCCCCC(C)(C)C(=O)O)C(=O)O [Ex. 6, 2,2,15,15-Tetramethylhexadecanedioic Acid]
- Fold efficacy (α,α/β,β), plasma apo C-III (Rats [3]; [6]): 3.7
- Fold efficacy (α,α/β,β), plasma cholesterol (Rats [3]; [6]): 1.2
- Fold efficacy (α,α/β,β), plasma glucose (Rats [3]; [6]): 1.1
- Fold efficacy (α,α/β,β), plasma insulin (Rats [3]; [6]): 1.0
- Fold efficacy (α,α/β,β), plasma triglycerides (Rats [3]; [6]): 1.78
- Plasma apo C-III (Rats [3]; [7]): 17 ± 14 mg %
- Plasma cholesterol (Rats [3]; [7]): 69.5 ± 9.7 mg %
- Plasma glucose (Rats [3]; [7]): 104 ± 4 mg %
- Plasma insulin (Rats [3]; [7]): 24.2 ± 7.3 µU/mL
- Plasma triglycerides (Rats [3]; rats, conditions as in Experiment II (0.09% w/w in diet, 5 days)): 44.5 ± 14.0 mg %
